In patent publication US11123292B2, “Use of biocompatible microdroplets for the treatment of atherosclerosis, heart disease and stroke” (priority 2014, dated 2021):
Where two headings read alike, the source gives them in different places. Each block holds one molecule with its values, some of them ahead of it.

Legend:
[1] = cited from earlier work
[2] = Relative Energy Difference (RED) with cholesterol, calculated from HSP; conditions: for Relative Energy Difference (RED) with cholesterol: RED=Ra/Ro, Ro of cholesterol 12.6; for Ra^2 versus cholesterol: Eq. 1
Protocol: The extent to which two compounds will dissolve each other can be quantified using the equations developed by Hansen: (Ra)^2=4(δd2−δd1)^2+(δp2−δp1)^2+(δh2−δh1)^2 Eq. (1) RED=Ra/Ro Eq. (2)
Equation 1 calculates the relative magnitude difference of the three Hansen parameters of the two compounds to arrive at Ra. […] Equation 2 allows one to calculate the Relative Energy Difference (RED) of the solvent and the material we are trying to dissolve, by dividing Ra by Ro. Ra was calculated in Equation 1 and measures the magnitude of the difference of the HSP values of the two compounds. The units for the HSP parameters δd, δp, δh are MPa^1/2. […] The Relative Energy Difference (RED) is a dimensionless number which quantifies how well a solvent will dissolve a solute. For an RED>>1 the compounds will not dissolve. For an RED˜1, there will be some dissolution. For an RED<1 there will be a considerable amount of dissolution. Essentially, the smaller RED value, the more solute will dissolve into the solvent, with RED=1 being a threshold where a given solute is starting to be soluble in a given solvent.
Referring now to FIG. 6, this diagram provides a flow chart showing how the biocompatible microdroplet solvent emulsion can be formulated. […] For an example of compounds which might be included in 400, please refer to Tables 1, 2, 3 and 4. However, this list of tables is by no means exhaustive and other compounds could be added to this list. The number of compounds selected can comprise of 1, 2, 3 or as many as are deemed necessary, which is symbolized by the variable n. The HSP parameters of a homogenous mixture of compounds are the weighted average of the HSP parameters of the individual components. […] Ideally, it is possible to formulate a solution such that the resultant RED of the mixture is smaller than the RED of any of the individual components.
The δdm, δpm, δhm calculated using Eq. 9 are the Hansen solubility parameters of the homogenous mixture, where m denotes mixture, and fi depicts the fraction of each of the n components used to fabricate the biocompatible solvent. Equation 10 can be used to calculate the RED of the final mixture, where Ro is the interaction radius of the cholesterol, or other component of arterial plaque one desires to dissolve using the biocompatible microdroplets and […] represents the Hansen solubility constants of cholesterol (dispersion, polar and hydrogen bonding components) or the HSP parameter of the arterial plaque which is being targeted.

[3] = single compound; cited from earlier work
[4] = cited from earlier work; for LD50 dose: route not stated
[5] = cited from earlier work; remark: listed apart in the source
[6] = Dissolving cholesterol by microdroplets in whole blood; conditions: whole blood
Source text: (§1) To effectively dissolve arterial plaque in-vivo it is very important that the biocompatible solvent be sufficiently insoluble in blood to allow a small discrete microdroplet to travel through the blood stream, from the injection point, to the plaque which is being treated. If the biocompatible solvent dissolves within the blood, such as an alcohol, the solubility parameters of the resultant mixture will be very nearly identical to that of blood and will not dissolve cholesterol or arterial plaque. Conversely, if a discrete microdroplet of the biocompatible solvent makes contact with the plaque, then the cholesterol molecule in the plaque will be surrounded by multiple molecules of the biocompatible solvent, which have similar solubility parameters as the cholesterol, and the cholesterol will be drawn away from the plaque and into the droplet. […] An organic salt, Esters, an organo-metallic compound could also be used as the main component or an addition to the biocompatible microdroplet solvent means. Essentially any organic molecule which can be administered intravenously with acceptable side effects, is sufficiently insoluble in blood to travel as a discrete microdroplet without being dissolved prior to reaching arterial plaque and which is capable of dissolving cholesterol, cholesterol esters or other materials within the arterial plaque, could potentially be used.
(§2) 1,8-cineole is classified as a cyclic ether and a monoterpenoid. […] This chemical gives certain fruits such as apples and strawberries their fruity taste, and is used as an additive in bubble gums for this purpose. […] It is used as a fragrance or flavouring agent. […] It is produced natuarally by the organism, and is found in abundance in shark liver oil.

[7] = Water insoluble solvents tested for dissolving cholesterol / arterial plaque; conditions: medium not stated
Source text: as §1

[8] = Dissolving cholesterol by microdroplets in a dilute solution in water
Source text: as §2

Relative Energy Difference (RED) with cholesterol [2]: 0.66
SMILES: CC(=O)c1ccccc1 [Acetophenone]
solubility in water / water based blood ([1]; in words): somewhat soluble in water
δd London dispersion HSP parameter [3]: 19.6 MPa^1/2
δh hydrogen bonding HSP parameter [3]: 3.7 MPa^1/2
δp polarity HSP parameter [3]: 8.6 MPa^1/2

SMILES: c1ccc(Oc2ccccc2)cc1 [Diphenyl ether]
LD50 dose [4]: 2.85 g/kg of body weight
excreted in the urine ([5]; once absorbed): 90%
Ra^2 versus cholesterol [2]: 17
Relative Energy Difference (RED) with cholesterol [2]: 0.32
efficacy of microdroplets at dissolving cholesterol in whole blood [6]: excellent results
δd London dispersion HSP parameter [3]: 19.5 MPa^1/2
δh hydrogen bonding HSP parameter [3]: 5.8 MPa^1/2
δp polarity HSP parameter [3]: 3.4 MPa^1/2

SMILES: CC/C=C\C/C=C\C/C=C\C/C=C\C/C=C\CCCC(=O)O [Elcosapentaenoic acid]
result of solvent testing (dissolving cholesterol) [7]: very promising results

SMILES: O=C(O)c1ccccc1 [Benzoic acid]
time to excretion in the urine ([5]; after ingestion): ≤ 24 h

SMILES: Brc1cccc2ccccc12 [1-Bromonaphthalene]
result of solvent testing (dissolving cholesterol) [7]: very promising results

SMILES: O=C(OCc1ccccc1)c1ccccc1 [Benzyl benzoate]
LD50 dose [4]: 1.68 g/kg
Ra^2 versus cholesterol [2]: 24
δd London dispersion HSP parameter [3]: 20 MPa^1/2
δh hydrogen bonding HSP parameter [3]: 5.2 MPa^1/2
δp polarity HSP parameter [3]: 5.1 MPa^1/2

SMILES: CCOC(=O)OCC [Diethyl carbonate]
LD50 ([4]; oral): 8500 mg/kg
δd London dispersion HSP parameter [3]: 16.6 MPa^1/2
δh hydrogen bonding HSP parameter [3]: 6.1 MPa^1/2
δp polarity HSP parameter [3]: 3.1 MPa^1/2

SMILES: CC/C=C\C/C=C\C/C=C\CCCCCCCC(=O)O [Alpha-linolenic acid]
result of solvent testing (dissolving cholesterol) [7]: very promising results

SMILES: Cc1ccc(C(C)C)cc1O [Carvacrol]
solubility in water / water based blood [1]: insoluble in water
Relative Energy Difference (RED) with cholesterol [2]: 0.64
efficacy of microdroplets at dissolving cholesterol in whole blood [6]: excellent results
δd London dispersion HSP parameter [3]: 16.5 MPa^1/2
δh hydrogen bonding HSP parameter [3]: 11.4 MPa^1/2
δp polarity HSP parameter [3]: 3.2 MPa^1/2

SMILES: C=C(C)[C@H]1CC=C(C)CC1 [Limonene]
efficacy of microdroplets at dissolving cholesterol in whole blood [6]: the cholesterol sample seemed to accumulate precipitate and swell
dissolving cholesterol in a dilute solution in water [8]: dissolved cholesterol
δd London dispersion HSP parameter [3]: 17.2 MPa^1/2
δh hydrogen bonding HSP parameter [3]: 4.3 MPa^1/2
δp polarity HSP parameter [3]: 1.8 MPa^1/2
